This passage reports Ki and IC50 results from ChEMBL document CHEMBL1141030, “Synthesis and biological evaluation of phloridzin analogs as human concentrative nucleoside transporter 3 (hCNT3) inhibitors” (Bioorg Med Chem Lett, 2009).

Where only a bound is given, the exact number is not on record here.

In test [1] the target is T1, Solute carrier family 28 member 3 (Homo sapiens, UniProt Q9HAS3).
T1 sequence (Q9HAS3 whole entry): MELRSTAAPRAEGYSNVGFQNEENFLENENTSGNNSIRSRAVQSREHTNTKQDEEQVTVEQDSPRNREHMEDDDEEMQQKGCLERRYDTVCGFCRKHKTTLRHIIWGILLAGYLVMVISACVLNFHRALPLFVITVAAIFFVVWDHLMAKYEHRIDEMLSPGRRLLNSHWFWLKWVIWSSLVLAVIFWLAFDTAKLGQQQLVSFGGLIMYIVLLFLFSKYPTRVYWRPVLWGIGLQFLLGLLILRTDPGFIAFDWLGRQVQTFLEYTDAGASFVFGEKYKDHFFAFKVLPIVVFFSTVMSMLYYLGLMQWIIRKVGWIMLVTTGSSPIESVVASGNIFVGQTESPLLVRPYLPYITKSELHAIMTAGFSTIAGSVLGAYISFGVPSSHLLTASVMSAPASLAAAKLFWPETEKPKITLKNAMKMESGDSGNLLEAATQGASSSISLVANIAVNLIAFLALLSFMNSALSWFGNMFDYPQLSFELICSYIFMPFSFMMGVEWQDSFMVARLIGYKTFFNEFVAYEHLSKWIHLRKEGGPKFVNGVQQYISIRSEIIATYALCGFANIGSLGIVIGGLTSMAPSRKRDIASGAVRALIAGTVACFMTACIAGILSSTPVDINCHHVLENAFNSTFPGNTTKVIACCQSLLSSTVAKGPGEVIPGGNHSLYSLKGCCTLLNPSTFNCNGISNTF
Put plainly: Binding affinity to human recombinant CNT3 expressed in pig PK15NTD cells assessed as [3H]uridine uptake by beta-scintillation counter. It counts as cell-based.

Test [2] deals with T2, Sodium/nucleoside cotransporter 1 (Homo sapiens, UniProt O00337).
T2 sequence (O00337 whole entry): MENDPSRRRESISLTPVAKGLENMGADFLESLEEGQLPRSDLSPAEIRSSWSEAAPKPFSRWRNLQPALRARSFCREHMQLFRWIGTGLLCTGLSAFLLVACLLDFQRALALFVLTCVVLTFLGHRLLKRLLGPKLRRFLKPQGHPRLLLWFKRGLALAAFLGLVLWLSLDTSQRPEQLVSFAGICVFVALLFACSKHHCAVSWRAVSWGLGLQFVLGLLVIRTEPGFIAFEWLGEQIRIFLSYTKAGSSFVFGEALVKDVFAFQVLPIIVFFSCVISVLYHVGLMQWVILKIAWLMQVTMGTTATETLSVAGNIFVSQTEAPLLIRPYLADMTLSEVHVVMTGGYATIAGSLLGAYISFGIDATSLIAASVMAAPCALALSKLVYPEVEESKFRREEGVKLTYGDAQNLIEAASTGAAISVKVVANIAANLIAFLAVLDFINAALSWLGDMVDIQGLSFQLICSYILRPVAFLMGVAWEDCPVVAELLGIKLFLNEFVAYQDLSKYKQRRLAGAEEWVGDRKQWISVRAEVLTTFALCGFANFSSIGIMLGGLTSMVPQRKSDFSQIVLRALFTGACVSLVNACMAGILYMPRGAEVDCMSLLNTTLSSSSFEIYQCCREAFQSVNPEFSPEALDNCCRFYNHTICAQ
Description: Inhibition of human CNT1.

Test [3] has as its target T3, Sodium/nucleoside cotransporter 2 (Homo sapiens, UniProt O43868).
T3 sequence (O43868 whole entry): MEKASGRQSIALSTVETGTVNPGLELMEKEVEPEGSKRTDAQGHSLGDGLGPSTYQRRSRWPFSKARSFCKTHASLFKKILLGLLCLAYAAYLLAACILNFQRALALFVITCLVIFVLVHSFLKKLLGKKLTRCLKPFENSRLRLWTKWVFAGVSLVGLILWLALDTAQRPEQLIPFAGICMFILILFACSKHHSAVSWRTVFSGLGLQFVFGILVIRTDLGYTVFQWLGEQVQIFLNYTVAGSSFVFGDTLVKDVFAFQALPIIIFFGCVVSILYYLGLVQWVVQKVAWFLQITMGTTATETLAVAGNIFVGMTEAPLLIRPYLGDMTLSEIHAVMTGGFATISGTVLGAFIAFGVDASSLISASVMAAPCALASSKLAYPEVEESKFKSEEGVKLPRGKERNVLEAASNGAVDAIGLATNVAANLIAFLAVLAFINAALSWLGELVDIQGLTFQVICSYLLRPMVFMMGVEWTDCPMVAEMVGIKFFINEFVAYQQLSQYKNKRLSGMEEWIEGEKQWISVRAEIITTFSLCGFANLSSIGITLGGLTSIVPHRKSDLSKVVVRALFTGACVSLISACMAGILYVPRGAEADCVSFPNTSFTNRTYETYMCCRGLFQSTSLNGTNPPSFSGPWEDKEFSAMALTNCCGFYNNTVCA
Description: Inhibition of human CNT2.

The target of test [4] is T4, Equilibrative nucleoside transporter 1 (Homo sapiens, UniProt Q99808).
T4 sequence (Q99808 whole entry): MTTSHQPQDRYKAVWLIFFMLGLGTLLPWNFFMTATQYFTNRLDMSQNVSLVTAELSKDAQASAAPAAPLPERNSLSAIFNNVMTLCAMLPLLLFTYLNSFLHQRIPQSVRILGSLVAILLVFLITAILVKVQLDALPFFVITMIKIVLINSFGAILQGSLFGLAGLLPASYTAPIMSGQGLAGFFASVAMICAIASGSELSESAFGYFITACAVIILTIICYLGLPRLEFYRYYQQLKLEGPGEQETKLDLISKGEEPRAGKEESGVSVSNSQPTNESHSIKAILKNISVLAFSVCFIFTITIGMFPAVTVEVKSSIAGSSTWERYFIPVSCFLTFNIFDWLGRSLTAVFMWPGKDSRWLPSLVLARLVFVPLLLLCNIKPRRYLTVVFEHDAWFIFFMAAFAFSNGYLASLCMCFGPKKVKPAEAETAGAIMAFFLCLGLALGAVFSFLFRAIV
Description: Binding affinity to human ENT1 assessed as [3H]uridine uptake by flow cytometry. (In general: In flow cytometry, cells or beads pass a laser one at a time.)

What is called Ki is a measure of affinity in units of concentration, obtained from inhibition or displacement. As to `Oc1ccc(CCCc2c(O)cc(O)cc2O)cc1`, in test [1], the Ki was determined as 30 µM. Turning to `CC(=O)c1c(O)cccc1O`, the Ki in test [1] was more than 100 µM. On the same count and under the same terms, under `CC(=O)c1ccc(O)cc1O` stands more than 100 µM; under `CC(=O)c1cc(O)cc(O)c1`, more than 100 µM. Same read-out and setting: under `CC(=O)c1cc(O)cc(O[C@@H]2O[C@H](CO)[C@@H](O)[C@H]2O)c1` stands more than 100 µM. On to `CC(=O)c1cc(O)cc(O[C@H]2O[C@H](CO)[C@@H](O)[C@H](O)[C@H]2O)c1`, for which, in test [1], the Ki was more than 100 µM. On to `CC(=O)c1c(O)cccc1O[C@@H]1O[C@H](CO)[C@@H](O)[C@H]1O`, for which the Ki in test [1] is 42.1 µM. On the same count and under the same terms, to `OC[C@H]1O[C@@H](Oc2cc(O)cc(O)c2CCCc2ccc(O)cc2)[C@H](O)[C@@H](O)[C@@H]1O` belongs 12.3 µM. The same measure, in the same setting: under `CC(=O)c1c(O)cc(O)cc1O[C@H]1O[C@H](CO)[C@@H](O)[C@H](O)[C@H]1O` stands 30.8 µM. For orientation: IC50 means the concentration that inhibits the measured activity by half. Lower therefore signals higher potency. For `O=C(CCc1ccc(O)cc1)c1c(O)cc(O)cc1O[C@@H]1O[C@H](CO)[C@@H](O)[C@H](O)[C@H]1O` [PHLORIZIN], the IC50 was 250 µM in test [2] and 100 µM in test [3]. The Ki in test [1] is 16 µM; in test [4], more than 1000 µM.

On to `CC(=O)c1c(O)cc(O)cc1O[C@@H]1O[C@H](CO)[C@@H](O)[C@H]1O`, for which, in test [1], the Ki amounted to 12.4 µM. `O=[N+]([O-])c1ccc(CSc2ncnc3c2ncn3[C@@H]2O[C@H](CO)[C@@H](O)[C@H]2O)cc1` [NITROBENZYLMERCAPTOPURINE RIBONUCLEOSIDE]: the Ki in test [1] amounted to 88 µM. For the compound `CC(=O)c1c(O)cccc1O[C@H]1O[C@H](CO)[C@@H](O)[C@H](O)[C@H]1O`, in test [1], the Ki was found to be 53.9 µM. Turning to `O=C(CCc1ccccc1)c1ccccc1O[C@@H]1O[C@H](CO)[C@@H](O)[C@H]1O`, the Ki in test [1] is more than 100 µM. Same read-out and setting: under `O=C(CCc1ccc(O)cc1)c1c(O)cc(O)cc1O` [PHLORETIN] stands 32.3 µM. In the case of `O=C(CCc1ccc(O)cc1)c1c(O)cc(O[C@@H]2O[C@H](CO)[C@@H](O)[C@H](O)[C@H]2O)cc1O`, the Ki in test [1] was more than 100 µM.

`CC(=O)c1c(O)cc(O)cc1O` [2,4,6-TRIHYDROXYACETOPHENONE]: the Ki in test [1] is more than 100 µM. For the compound `O=C(CCc1ccc(O)cc1)c1c(O)cc(O)cc1O[C@@H]1O[C@H](CO)[C@@H](O)[C@H]1O`, the Ki is 2.88 µM in test [1] and more than 1000 µM in test [4]. Take `CC(=O)c1ccc(O[C@H]2O[C@H](CO)[C@@H](O)[C@H](O)[C@H]2O)cc1O`: in test [1], the Ki was more than 100 µM.
